The target of one assay is AM2 (S31N) (Influenza A virus, UniProt P0DOF5, S31N). It counts as cell-based.
Another assay addresses AM2 (V27A) (Influenza A virus, UniProt P0DOF5, V27A). It counts as cell-based.

Where a name gives a salt, the structure may show the parent alone.

Results on 31 compounds are retold here after patent US20120270917A1 (The Trustees of the University of Pennsylvania, priority 2009, published 2012).

Regarding `NOC12CC3CC(CC(C3)C1)C2` [Compound 42, O-adamantylhydroxylamine], the “AM2 (S31N) % inhibition at 100 uM” value at AM2 (S31N) was 42 (15%).

On to `NS(=O)(=O)NC1C2CC3CC(C2)CC1C3` (centres unmarked) [Compound S7], for which the “AM2 (S31N) % inhibition at μM” value on AM2 (S31N) was determined as 3.8%.

Regarding `O=C1C2CC3CC(C2)CC1C3` [Compound S13], at AM2 (V27A), the “AM2 (V27A) % inhibition at μM” value was determined as 0%. In addition, the “AM2 (S31N) % inhibition at μM” value at AM2 (S31N) came to 0%.

As to `CC1(O)C2CC3CC(C2)CC1C3` (centres unmarked) [Compound S4], on AM2 (V27A), the “AM2 (V27A) % inhibition at μM” value came out at 10.9%. In addition, the “AM2 (S31N) % inhibition at μM” value at AM2 (S31N) was determined as 10.6%.

Turning to `Cc1nc[nH]c1/C=N/OC12CC3CC(CC(C3)C1)C2` [Compound 43, 5-Methyl-3H-imidazole-4-carbaldehyde O-adamantan-1-yl-oxime], the “AM2 (S31N) % inhibition at 100 uM” value on AM2 (S31N) was 43 (10%).

As to `Cl.NC12CCC3CC(CC(C3)C1)C2` [Compound S12], the “AM2 (V27A) % inhibition at μM” value on AM2 (V27A) was 13.3%. The “AM2 (S31N) % inhibition at μM” value at AM2 (S31N) is reported as 32.8%.

With `N=C(NO)C12CC3CC(CC(C3)C1)C2` [Compound 46, N-hydroxyadamantanecarboximidamide], on AM2 (S31N), the “AM2 (S31N) % inhibition at 100 uM” value is on record as 46 (0%).

In the case of `C1NC2CC3CC1CC(C3)C2.Cl` [Compound 47, 4-Azatricyclo[4.3.1.1^3,8]undecan hydrochloride], the “AM2 (S31N) % inhibition at 100 uM” value at AM2 (S31N) is listed as 47 (8%).

Consider `O=[N+]([O-])C12CC3CC(CC(C3)C1)C2` [Compound 54, 1-nitroadamantane], for which, at AM2 (S31N), the “AM2 (S31N) % inhibition at 100 uM” value is 54 (24%).

Regarding `NC12CC3CC(CC(C3)C1)C2` [Amantadine, reference compound], the “S31N % of inhibition by 100 μM for 2 min” value on AM2 (S31N) is 34.7 ± 1.6%.

Take `O=CC12CC3CC(CC(C3)C1)C2` [Compound 49, 1-adamantanecarboaldehyde]: the “AM2 (S31N) % inhibition at 100 uM” value at AM2 (S31N) is 49 (11%).

In the case of `OC1(C(F)(F)F)C2CC3CC(C2)CC1C3` (centres unmarked) [Compound 53, 2-trifluoromethyl-2-adamantol], the “AM2 (S31N) % inhibition at 100 uM” value at AM2 (S31N) is 53 (14%).

As for `CC(N)C12CC3CC(CC(C3)C1)C2` (centres unmarked) [Rimantadine, reference compound], the “S31N % of inhibition by 100 μM for 2 min” value on AM2 (S31N) is 13.3 ± 1.8%.

With `O=[N+]([O-])C12CC3CC(CC(C3)C1)C2` [Compound S9], the “AM2 (V27A) % inhibition at μM” value at AM2 (V27A) came to 19.9%. Besides, the “AM2 (S31N) % inhibition at μM” value at AM2 (S31N) came to 24.0%.

With `O=C1C2CC3CC1CC(C2)C3=O` [Compound 52, 2,6-diadamantone], the “AM2 (S31N) % inhibition at 100 uM” value on AM2 (S31N) was 52 (0%).

Regarding `Cl.NC1C2CC3CC(C2)CC1C3` (centres unmarked) [Compound S14], the “AM2 (V27A) % inhibition at μM” value on AM2 (V27A) is given as 0%. Besides, the “AM2 (S31N) % inhibition at μM” value at AM2 (S31N) worked out at 18.2%.

`CC(NC(=N)N)C12CC3CC(CC(C3)C1)C2` (centres unmarked) [Compound 40]: the “AM2 (S31N) % inhibition at 100 uM” value on AM2 (S31N) is on record as 40 (0%).

For `Cl.Cl.N=C(N)NC(=N)NC12CC3CC(CC(C3)C1)C2` [Compound 41], at AM2 (S31N), the “AM2 (S31N) % inhibition at 100 uM” value is recorded as 41 (0%).

Regarding `O=C1C2CC3CC(C2)CC1C3` [Compound 50], on AM2 (S31N), the “AM2 (S31N) % inhibition at 100 uM” value was 50 (0%).

Consider `NC(=O)C12CC3CC(CC(C3)C1)C2` [Compound 48], for which the “AM2 (S31N) % inhibition at 100 uM” value at AM2 (S31N) is listed as 48 (7.3%).

Take `N=C(N)C12CC3CC(CC(C3)C1)C2` [Compound 44, Adamantane amidine hydrochloride]: at AM2 (S31N), the “AM2 (S31N) % inhibition at 100 uM” value is on record as 44 (31.5%).

Consider `CC1(N)C2CC3CC(C2)CC1C3` (centres unmarked) [Compound S5], for which the “AM2 (V27A) % inhibition at μM” value at AM2 (V27A) amounted to 7.2%. Besides, the “AM2 (S31N) % inhibition at μM” value on AM2 (S31N) worked out at 13.8%.

Turning to `O=[N+]([O-])C1C2CC3CC(C2)CC1C3` (centres unmarked) [Compound S3], the “AM2 (V27A) % inhibition at μM” value at AM2 (V27A) was 7.4%. The “AM2 (S31N) % inhibition at μM” value at AM2 (S31N) was 12.4%.

In the case of `Cl.NC12CC3CCC(CC(C3)C1)C2` [Compound S2, tricyclo[4.3.1.13,8]undecan-1-aminium chloride], the “AM2 (V27A) % inhibition at μM” value on AM2 (V27A) is reported as 13.6%. Further, the “AM2 (S31N) % inhibition at μM” value on AM2 (S31N) is recorded as 23.7%.

In the case of `NC1(C(F)(F)F)C2CC3CC(C2)CC1C3` (centres unmarked) [Compound S6], the “AM2 (V27A) % inhibition at μM” value on AM2 (V27A) is reported as 1.5%. In addition, at AM2 (S31N), the “AM2 (S31N) % inhibition at μM” value is 13.7%.

For `NC1CSC2(SC1)C1CC3CC(C1)CC2C3` (centres unmarked) [Compound 45], on AM2 (S31N), the “AM2 (S31N) % inhibition at 100 uM” value is 45 (0%).

Take `N=C(N)NC12CC3CC(CC(C3)C1)C2` [Compound 39, 1-(adamantyl)guanidine]: the “AM2 (S31N) % inhibition at 100 uM” value at AM2 (S31N) is given as 39 (0%).

For the compound `Cl.NC1CCC2(CC1)C1CC3CC(C1)CC2C3` (centres unmarked) [Compound S15, (1r, 3r,5r,7r)-spiro[adamantane-2,1′-cyclohexan]-4′-aminium chloride], the “V27A % of inhibition by 100 μM for 2 min” value at AM2 (V27A) is reported as 94.5 ± 0.4%.

Turning to `OC1(C(F)(F)F)C2CC3CC(C2)CC1C3` (centres unmarked) [Compound S8], on AM2 (V27A), the “AM2 (V27A) % inhibition at μM” value came out at 10.6%. Also, the “AM2 (S31N) % inhibition at μM” value on AM2 (S31N) is 14.0%.

`Cl.NC1C[C@@H]2C[C@@H]3CC1[C@H](C2)C3` (stereo partly drawn) [Compound S1, (2S,3aS,5R)-octahydro-1H-2,5-methanoinden-7-aminium chloride]: the “AM2 (V27A) % inhibition at μM” value at AM2 (V27A) came out at 25.5%.

Regarding `NC12CC3CC(C1)CC(O)(C3)C2` [Compound 38], on AM2 (S31N), the “AM2 (S31N) % inhibition at 100 uM” value is 38 (20%).
